Reference: BigSolDB 2.1

CC[n+]1ccccc1.F[P-](F)(F)(F)(F)F
solubility (mole fraction)
Conditions | in ethanol | in water
278.15 K | 8.4e-05 | 0.000474
283.15 K | 0.000121 | 0.000581
288.15 K | 0.000171 | 0.000711
293.15 K | 0.000224 | 0.000857
298.15 K | 0.000324 | 0.00105
303.15 K | 0.000561 | 0.0013
308.15 K | 0.00061 | 0.00159
313.15 K | 0.000718 | 0.00186
318.15 K | 0.000976 | 0.00216
323.15 K | 0.0015 | 0.0026
328.15 K | 0.00189 | 0.00325
333.15 K | 0.00252 | 0.00387
338.15 K | 0.00308 | 0.00454
343.15 K | 0.00389 | 0.00535
